According to patent US5010093A, “Nitric ester derivative” (Fujisawa Pharmaceutical Co., Ltd., priority 1987, dated 1991):
In brackets after ≈: the same amount, converted by molar mass.

What was measured:
[1] = tested on: Normotensive Rats; assay: Effect on Normotensive Rats (duration of hypotensive effect after oral dosing); format: in vivo; details: 10 mg/kg, normotensive male S.D. rats fasted about 18 hours
Procedure: 7 to 9-week-old male S.D. rats with mean arterial blood pressure of 100-125 mmHg, weighing 245-375 g, were used. The animals were cannulated in the left femoral artery and the mean blood pressure and heart rate were measured with a pressure-transducer. The drugs were given orally. The animals were deprived of food for about 18 hours before oral dosing. The test drugs were dissolved in saline or ethanol, and given in oral doses of 10 mg/kg. The duration of half the maximum hypotensive effect was calculated as T 1/2. Compound 1 ,and Compound A.

[2] = tested on: Isolated Rat Aorta; assay: Effect on Isolated Rat Aorta (relaxation of norepinephrine-contracted aortic strips); details: aortic spiral strips, norepinephrine 3.2 ×10^-8 M tonus, 37° C., effect of papaverine 10^-4 M=100%, read-out: ED50 value
Procedure: The aortas were removed from rats. Spiral strips approximately 10 mm in length were cut from the aorta, and suspended in an organ bath containing Tyrode's solution at 37° C., aerated with a gas mixture of 95% oxygen and 5% carbon dioxide. The tonus of the strips was recorded on a polygraph with a force-displacement transducer. After the initial resting tension was adjusted to 0.5 g, norepinephrine 3.2 ×10^-8 M was added to the organ bath to increase the tonus of the aortic strips to 0.9-1.1 g.
The cumulative concentrations of the test compound were then added, and finally papaverine 10^-4 M was given to determine maximum relaxation. ED50 values were calculated by interpolation from the mean cumulative dose-activity curves (effect of papaverine 10^-4 M=100%).
N-(2-Nitrooxyethyl)-2-methyl-4-thiazolecarboxamide hydrochloride (hereinafter referred to as Compound .circle.1 ), and N-(2-Nitrooxyethyl)-3-pyridinecarboxamide (Reference Compound A) (hereinafter referred to as Compound A).

Row | SMILES | T 1/2 (duration of half the maximum hypotensive effect) [1] | EC50 [2]
1 | Cc1nc(C(=O)NCCO[N+](=O)[O-])cs1 [.circle.1] | 1.67 h | 0.091 µg/mL (≈ 0.394 µM)
2 | O=C(NCCO[N+](=O)[O-])c1cccnc1 [Compound A, N-(2-Nitrooxyethyl)-3-pyridinecarboxamide] | 0.833 h | 0.94 µg/mL (≈ 4.45 µM)
